Measurements as given in PubChem BioAssay (NCI).
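How tested: cells in 96-well plates exposed to compound for 48 hours at five concentrations. GI50 marks 50% less growth. TGI is the concentration that stops growth completely.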

What was measured:
Assay in all cases: growth of human tumour cells (NCI), 48 h
[1] = test system: SK-MEL-5 melanoma
[2] = test system: NCI-H226 lung
[3] = test system: SR leukemia
[4] = test system: HL-60(TB) leukemia
[5] = test system: LOX IMVI melanoma
[6] = test system: NCI-H522 lung
[7] = test system: BT-549 breast
[8] = test system: UACC-257 melanoma
[9] = test system: A498 renal
[10] = test system: HT29 colon
[11] = test system: U251 CNS
[12] = test system: TK-10 renal
[13] = test system: SK-OV-3 ovarian
[14] = test system: SW-620 colon
[15] = test system: T-47D breast
[16] = test system: OVCAR-4 ovarian
[17] = test system: SF-295 CNS
[18] = test system: SK-MEL-2 melanoma
[19] = test system: COLO 205 colon
[20] = test system: UO-31 renal
[21] = test system: HOP-62 NSCLC
[22] = test system: DU-145 prostate
[23] = test system: NCI-H23 lung
[24] = test system: EKVX NSCLC
[25] = test system: RPMI-8226 leukemia
[26] = test system: IGROV1 ovarian
[27] = test system: CCRF-CEM leukemia
[28] = test system: SNB-19 CNS
[29] = test system: HOP-92 NSCLC
[30] = test system: PC-3 prostate
[31] = test system: OVCAR-8 ovarian
[32] = test system: HCC-2998 colon
[33] = test system: M14 melanoma
[34] = test system: NCI-H460 lung
[35] = test system: KM12 colon
[36] = test system: UACC-62 melanoma
[37] = test system: SK-MEL-28 melanoma
[38] = test system: OVCAR-5 ovarian
[39] = test system: A549 NSCLC
[40] = test system: SN12C renal
[41] = test system: SNB-75 CNS
[42] = test system: MDA-MB-435
[43] = test system: HCT-116 colon
[44] = test system: NCI/ADR-RES ovarian
[45] = test system: RXF 393 renal
[46] = test system: OVCAR-3 ovarian
[47] = test system: MDA-MB-231 breast
[48] = test system: HS 578T breast
[49] = test system: ACHN renal
[50] = test system: HCT-15 colon
[51] = test system: MCF7 breast
[52] = test system: MALME-3M melanoma
[53] = test system: SF-268 CNS
[54] = test system: 786-0 renal
[55] = test system: MOLT-4 leukemia
[56] = test system: CAKI-1 renal
[57] = test system: SF-539 CNS

Which results are given for `O=C(O)c1ccc(NCc2nc3cc(Cl)c(Cl)cc3[nH]2)cc1`?
GI50 [1]: 93.4 µM; TGI [1]: > 100 µM; GI50 [2]: > 100 µM; TGI [2]: > 100 µM; GI50 [3]: 69.6 µM; TGI [3]: > 100 µM; GI50 [4]: > 100 µM; TGI [4]: > 100 µM; GI50 [5]: > 100 µM; TGI [5]: > 100 µM; GI50 [6]: 66.2 µM; TGI [6]: > 100 µM; GI50 [7]: > 100 µM; TGI [7]: > 100 µM; GI50 [8]: 5.28 µM; TGI [8]: 77.6 µM; GI50 [9]: > 100 µM; TGI [9]: > 100 µM; GI50 [10]: > 100 µM; TGI [10]: > 100 µM; GI50 [11]: > 100 µM; TGI [11]: > 100 µM; GI50 [12]: > 100 µM; TGI [12]: > 100 µM; GI50 [13]: > 100 µM; TGI [13]: > 100 µM; GI50 [14]: > 100 µM; TGI [14]: > 100 µM; GI50 [15]: > 100 µM; TGI [15]: > 100 µM; GI50 [16]: 40.9 µM; TGI [16]: > 100 µM; GI50 [17]: > 100 µM; TGI [17]: > 100 µM; GI50 [18]: 5.5 µM; TGI [18]: 41.6 µM; GI50 [19]: > 100 µM; TGI [19]: > 100 µM; GI50 [20]: > 100 µM; TGI [20]: > 100 µM; GI50 [21]: > 100 µM; TGI [21]: > 100 µM; GI50 [22]: > 100 µM; TGI [22]: > 100 µM; GI50 [23]: > 100 µM; TGI [23]: > 100 µM; GI50 [24]: > 100 µM; TGI [24]: > 100 µM; GI50 [25]: > 100 µM; TGI [25]: > 100 µM; GI50 [26]: > 100 µM; TGI [26]: > 100 µM; GI50 [27]: > 100 µM; TGI [27]: > 100 µM; GI50 [28]: > 100 µM; TGI [28]: > 100 µM; GI50 [29]: > 100 µM; TGI [29]: > 100 µM; GI50 [30]: > 100 µM; TGI [30]: > 100 µM; GI50 [31]: > 100 µM; TGI [31]: > 100 µM; GI50 [32]: 72.3 µM; TGI [32]: > 100 µM; GI50 [33]: > 100 µM; TGI [33]: > 100 µM; GI50 [34]: > 100 µM; TGI [34]: > 100 µM; GI50 [35]: > 100 µM; TGI [35]: > 100 µM; GI50 [36]: > 100 µM; TGI [36]: > 100 µM; GI50 [37]: 3.77 µM; TGI [37]: > 100 µM; GI50 [38]: > 100 µM; TGI [38]: > 100 µM; GI50 [39]: > 100 µM; TGI [39]: > 100 µM; GI50 [40]: > 100 µM; TGI [40]: > 100 µM; GI50 [41]: > 100 µM; TGI [41]: > 100 µM; GI50 [42]: > 100 µM; TGI [42]: > 100 µM; GI50 [43]: > 100 µM; TGI [43]: > 100 µM; GI50 [44]: > 100 µM; TGI [44]: > 100 µM; GI50 [45]: > 100 µM; TGI [45]: > 100 µM; GI50 [46]: 60.7 µM; TGI [46]: > 100 µM; GI50 [47]: > 100 µM; TGI [47]: > 100 µM; GI50 [48]: > 100 µM; TGI [48]: > 100 µM; GI50 [49]: > 100 µM; TGI [49]: > 100 µM; GI50 [50]: 96.9 µM; TGI [50]: > 100 µM; GI50 [51]: 6.03 µM; TGI [51]: > 100 µM; GI50 [52]: 0.424 µM; TGI [52]: 1.69 µM; GI50 [53]: > 100 µM; TGI [53]: > 100 µM; GI50 [54]: > 100 µM; TGI [54]: > 100 µM; GI50 [55]: > 100 µM; TGI [55]: > 100 µM; GI50 [56]: > 100 µM; TGI [56]: > 100 µM; GI50 [57]: > 100 µM; TGI [57]: > 100 µM
